Experimental data as given in patent US6649793B1, “Process for the preparation of a N,N-diamino amino acid-β-hydroxy disuccinic acid” (Board of Trustees of Michigan State University, priority 2002, dated 2003).

Assay: Potentiometric calcium titration with calcium-selective electrode (calcium binding / chelation)
Assay type: physicochemical
Conditions: Ca2+ binding; 50 mL of 200 ppm hardness solution at 25° C.; NH4Cl/NH4OH buffer pH=9.5, ionic strength 0.1M
Procedure: Calcium chloride dihydrate was purchased from Fisher Scientific. A stock solution of 0.01M […] (1000 ppm, hardness CaCO3) was prepared with distilled deionized water, and 0.03M NH4Cl/0.07M NH4OH buffer (pH=9.5, ionic strength of 0.1M). The later chemicals were obtained from Columbus Chemical Industries, Inc. Standard solution ranging from 200 ppm to 10 ppm was prepared by dilution of the stock solution with the buffer. A plot of the logarithm of calcium ion concentration vs the normalized potential was constructed prior to each titration (Rechnitz, G. A., et al., Anal. Chem. 40 696 (1968); and Nagarajan, M. K., et al., JAOCS 61 1475 (1984)). This was necessary to minimize the effect of signal fluctuations due to solution condition (ionic strength, pH, and the like). […]
The electrode was immersed in a 50 mL of 200 ppm hardness solution at 25° C., and the meter reading was taken while the solution was being stirred by magnet (Blay, J. A., et al., Anal. Lett. 4, 653 (1971)). The calcium binding solution of Compound II was added in small increments and the equilibrium-free calcium ion concentration were measured. When the meter reading indicated less than 10 ppm present in solution, the titration was stopped. […] Chelation constant (logK) of compound II was determined to be 4.23±0.09 according to the following equation [formula] […]

O=C(O)C(O)C(NCCCC[C@H](NC(C(=O)O)C(O)C(=O)O)C(=O)O)C(=O)O (stereo partly drawn) [compound II, 2N,6N-lysine-β-hydroxy disuccinic acid]
Chelation constant (logK): 4.23±0.09
